Test results published in patent US10787448B2, “Indolizino [3,2-C] quinoline-based fluorescent probe” (SEOUL NATIONAL UNIVERSITY R & DB FOUNDATION, priority 2015, dated 2020).
Values joined by “and” are separate entries in the source; they are usually repeats but may differ in a detail not shown here. Equal entries are not always repeated. Structures can show the parent of a compound that is named as a salt.

Assay: Analysis of optical characteristics (absorption, fluorescence emission, quantum yield) in solvents
Type: physicochemical
Details: for peak emission (λmax): aqueous solution (H2O); for Relative fluorescence Emission Intensitynorm: normalized fluorescence intensity; for Relative fluorescence Emission Intensitynorm / Fluorescence Emission Intensity / Peak emission wavelength λmax em(nm): H2O at 2 μM; for Peak emission wavelength λmax em(nm): excited at the longest absorption maxima
Description: Fluorescence emission spectra were obtained at 20° C. using a JASCO FP-6500 spectrofluorometer, a 10 mM stock solution prepared by dissolving an indolizino[3,2-c]quinoline compound in DMSO was diluted in a solvent. […] Absorption spectra were recorded at room temperature using a Perkin Elmer Lamda 20 UV/VIS spectrometer. […]
Further, the compounds (excluding Entry #51-57, etc.) of Formula 1 were subjected to spectrum analyses in various solvents, and the results are shown in Tables 6 and 7, and FIGS. 5C and 5D.

c1cc(-c2nc3ccccc3c3cc4ccccn4c23)nc(-c2nc3ccccc3c3cc4ccccn4c23)c1 [IQ 5-D, 2,6-bis(indolizino[3,2-c]quinolin-6-yl)pyridine]
λex(nm) (Table 6): 402 nm and 422 nm
peak emission (λmax): 543 nm

COc1ccc(-c2c3c(cc4ccccn43)c3ccccc3[n+]2C)cc1 [IQ 6-S1-Me, 6-(4-methoxyphenyl)-5-methylindolizino[3,2-c]quinolin-5-ium methyl sulfate]
solvent-dependent (environment-sensitive) tendency of the emission: hardly showed an environment-sensitive optical characteristic
λex(nm) (Table 6): 458 nm

COc1ccc(-c2c3c(cc4ccccn43)c3ccccc3[n+]2CCCl)cc1 [IQ 6-S2-Cl, 5-(2-chloroethyl)-6-(4-methoxyphenyl)indolizino[3,2-c]quinolin-5-ium trifluoromethanesulfonate]
solvent-dependent (environment-sensitive) tendency of the emission: hardly showed an environment-sensitive optical characteristic
λex(nm) (Table 6): 464 nm

CCCCn1cc(-c2c3c4ccccc4nc(-c4ccc(OC)cc4)c3n3ccccc23)nn1 [IQ 6-T, 12-(1-butyl-1H-1,2,3-triazol-4-yl)-6-(4-methoxyphenyl)indolizino[3,2-c]quinoline]
λex(nm) (Table 6): 403 nm

COc1ccc(-c2nc3ccccc3c3c(-c4cn(CCOCCOCCOCCNC(=O)CCCCCC5[C@H]6NC(=O)N[C@H]6C[S+]5[O-])nn4)c4ccccn4c23)cc1 (stereo partly drawn) [IQ 6-T-B, N-(2-(2-(2-(2-(4-(6-(4-methoxyphenyl)indolizino[3,2-c]quinolin-12-yl)-1H-1,2,3-triazol-1-yl)ethoxy)ethoxy)ethoxy)ethyl)-6-((3aS,6aR)-5-oxido-2-oxohexahydro-1H-thieno[3,4-d]imidazol-4-yl)hexanamide]
λex(nm) (Table 6): 437 nm

COC(=O)c1c2c3ccccc3nc(-c3ccc[nH]3)c2n2ccccc12 [IQ 21, Methyl 6-(1H-pyrrol-2-yl)indolizino[3,2-c]quinoline-12-carboxylate]
solvent-dependent (environment-sensitive) tendency of the emission: blue-shift
peak emission (λmax): 433 nm

CCOC(=O)c1c2c3ccccc3nc(-c3ccc([N+](=O)[O-])cc3)c2n2ccccc12 [IQ 26, ethyl 6-(4-nitrophenyl)indolizino[3,2-c]quinoline-12-carboxylate]
fluorescence (intensity, in words): did not induce fluorescence

CCOC(=O)c1c2c3ccccc3nc(-c3cccc(F)c3)c2n2ccccc12 [IQ 28, ethyl 6-(3-fluorophenyl)indolizino[3,2-c]quinoline-12-carboxylate]
solvent-dependent (environment-sensitive) tendency of the emission: solvatochromic effect

CCOC(=O)c1c2c3ccccc3nc(-c3ccc(OC)c(OC)c3)c2n2ccccc12 [IQ 30, ethyl 6-(3,4-dimethoxyphenyl)indolizino[3,2-c]quinoline-12-carboxylate]
solvent-dependent (environment-sensitive) tendency of the emission: solvatochromic effect

C#Cc1c2c3ccccc3nc(-c3ccc(OC)cc3)c2n2ccccc12 [IQ 55, 12-ethynyl-6-(4-methoxyphenyl)indolizino[3,2-c]quinoline]
solvent-dependent (environment-sensitive) tendency of the emission: hardly showed an environment-sensitive optical characteristic

COc1ccc(-c2nc3ccccc3c3cc4cc(C#N)ccn4c23)cc1 [IQ 67, 6-(4-methoxyphenyl)indolizino[3,2-c]quinoline-10-carbonitrile]
fluorescence (intensity, in words): further high fluorescence intensity in an aqueous solution

COc1ccc(-c2nc3ccccc3c3cc4c5ccccc5ccn4c23)cc1 [IQ 77, 6-(4-methoxyphenyl)benzo[7,8]indolizino[3,2-c]quinoline]
fluorescence (intensity, in words): very high fluorescence intensity at a blue wavelength in EtOH and DMSO

CCc1nc2ccccc2c2cc3c4ccccc4ccn3c12 [IQ 79, 6-ethylbenzo[7,8]indolizino[3,2-c]quinoline]
fluorescence (intensity, in words): very high fluorescence intensity at a blue wavelength in EtOH and DMSO

Nc1ccc(-c2nc3ccccc3c3cc4ccccn4c23)cc1 [IQ-B1, 4-(indolizino[3,2-c]quinolin-6-yl)aniline]
solvent-dependent (environment-sensitive) tendency of the emission: high solvent-dependent (i.e., environment-sensitive) tendency

Oc1ccc(-c2nc3ccccc3c3cc4ccccn4c23)cc1 [IQ-B2, 4-(indolizino[3,2-c]quinolin-6-yl)phenol]
solvent-dependent (environment-sensitive) tendency of the emission: high solvent-dependent (i.e., environment-sensitive) tendency

C(=C\c1nc2ccccc2c2cc3ccccn3c12)/c1ccccc1 [IQ-B4, (E)-6-styrylindolizino[3,2-c]quinoline]
λex(nm) (Table 7): 415 nm

COc1ccc(-c2nc3ccccc3c3cc4cc(C=O)ccn4c23)cc1 [IQ-B11, 6-(4-methoxyphenyl)indolizino[3,2-c]quinoline-10-carbaldehyde]
λex(nm) (Table 7): 427 nm
maximum wavelength of fluorescence (Tris buffer (pH 7.5)): 531 nm

COc1ccc(/C=C/c2nc3ccccc3c3cc4ccccn4c23)cc1 [IQ-B12, (E)-6-(4-methoxystyryl)indolizino[3,2-c]quinoline]
Abs maximum λ for UV: 344 nm
Stokes shift: ≥ 180 nm

CN(/N=C/c1nc2ccccc2c2cc3ccccn3c12)c1ccccc1 [IQ-B16, (E)-6-((2-methyl-2-phenylhydrazineylidene)methyl)indolizino[3,2-c]quinoline]
λex(nm) (Table 7): 422 nm

COc1ccc(-c2nc3ccccc3c3cc4cc(/C=C/n5ccnc5)ccn4c23)cc1 [IQ-B20, (E)-10-(2-(1H-imidazol-1-yl)vinyl)-6-(4-methoxyphenyl)indolizino[3,2-c]quinoline]
fluorescence (intensity, in words): high fluorescence in other solvents as well as an aqueous solution

COc1ccc(-c2nc3ccccc3c3cc4cc(-c5ccc(C=O)cc5)ccn4c23)cc1 [IQ-B23, 4-(6-(4-methoxyphenyl)indolizino[3,2-c]quinolin-10-yl)benzaldehyde]
fluorescence (intensity, in words): high fluorescence in DMSO
λex(nm) (Table 7): 434 nm

COc1ccc(-c2nc3ccccc3c3cc4cc(/C=C/C=O)ccn4c23)cc1 [IQ-B25, (E)-3-(6-(4-methoxyphenyl)indolizino[3,2-c]quinolin-10-yl)acrylaldehyde]
fluorescence (intensity, in words): high fluorescence in DMSO
λex(nm) (Table 7): 444 nm

COc1ccc(-c2nc3ccccc3c3cc4cc(-c5ccc(C(=O)Nc6ccccc6)cc5)ccn4c23)cc1 [IQ-B35, 4-(6-(4-methoxyphenyl)indolizino[3,2-c]quinolin-10-yl)-N-phenylbenzamide]
λex(nm) (Table 7): 427 nm

CCN(CC)C(=O)c1ccc(-c2ccn3c(c2)cc2c4ccccc4nc(-c4ccc(OC)cc4)c23)cc1 [IQ-B36, N,N-diethyl-4-(6-(4-methoxyphenyl)indolizino[3,2-c]quinolin-10-yl)benzamide]
λex(nm) (Table 7): 422 nm

COc1ccc(-c2nc3ccccc3c3cc4cc(-c5ccc6ccccc6c5)ccn4c23)cc1 [IQ-B39, 6-(4-methoxyphenyl)-10-(naphthalen-2-yl)indolizino[3,2-c]quinoline]
λex(nm) (Table 7): 423 nm

COc1ccc(-c2nc3ccccc3c3cc4cc(-c5ccc(C#N)cc5)ccn4c23)cc1 [IQ-B43, 4-(6-(4-methoxyphenyl)indolizino[3,2-c]quinolin-10-yl)benzonitrile]
λex(nm) (Table 7): 431 nm

COc1ccc(-c2nc3ccccc3c3cc4cc(/C=C/C#N)ccn4c23)cc1 [IQ-B44, (E)-3-(6-(4-methoxyphenyl)indolizino[3,2-c]quinolin-10-yl)acrylonitrile]
λex(nm) (Table 7): 436 nm

O=[N+]([O-])c1ccc(-c2nc3ccccc3c3cc4ccccn4c23)cc1 [compound 2]
quantum yield (Φ) (DW, standard Rhodamine 6G): 0.000
quantum yield (Φ) (EtOH, standard Coumarin 153): 0.000
Relative fluorescence Emission Intensitynorm: 0.00

c1ccc(-c2nc3ccccc3c3cc4ccccn4c23)nc1 [compound 5]
Maximum absorption wavelength λmax abs(nm): 400 nm
quantum yield (Φ) (DW, standard Rhodamine 6G): 0.005
quantum yield (Φ) (EtOH, standard Coumarin 153): 0.196
Fluorescence Emission Intensity: 4.7
Peak emission wavelength λmax em(nm): 532 nm
Relative fluorescence Emission Intensitynorm: 0.02

COc1cc(OC)cc(-c2nc3ccccc3c3cc4ccccn4c23)c1 [compound 7]
quantum yield (Φ) (DW, standard Rhodamine 6G): 0.026
quantum yield (Φ) (EtOH, standard Coumarin 153): 0.756
Fluorescence Emission Intensity: 60.8
Peak emission wavelength λmax em(nm): 527.5 nm
Relative fluorescence Emission Intensitynorm: 0.26

Clc1ccc(-c2nc3ccccc3c3cc4ccccn4c23)s1 [compound 11]
Maximum absorption wavelength λmax abs(nm): 407 nm
quantum yield (Φ) (DW, standard Rhodamine 6G): 0.006
quantum yield (Φ) (EtOH, standard Coumarin 153): 0.111
Fluorescence Emission Intensity: 7.5
Peak emission wavelength λmax em(nm): 536 nm
Relative fluorescence Emission Intensitynorm: 0.03

Cc1cccn2c1cc1c3ccccc3nc(-c3ccc(Br)cc3)c12 [compound 12]
Maximum absorption wavelength λmax abs(nm): 395 nm
quantum yield (Φ) (DW, standard Rhodamine 6G): 0.131
quantum yield (Φ) (EtOH, standard Coumarin 153): 0.623
Fluorescence Emission Intensity: 11.8
Peak emission wavelength λmax em(nm): 531.5 nm
Relative fluorescence Emission Intensitynorm: 0.05

Cc1cccn2c1cc1c3ccccc3nc(-c3ccc([N+](=O)[O-])cc3)c12 [compound 13]
quantum yield (Φ) (DW, standard Rhodamine 6G): 0.000
quantum yield (Φ) (EtOH, standard Coumarin 153): 0.000
Relative fluorescence Emission Intensitynorm: 0.00
